Experimental findings from US6214795A, “Peptide compounds useful for modulating FGF receptor activity” (Praecis Pharmaceuticals, Inc., priority 1996, dated 2001) are described below.

The target in one test is FGFR2-IIIC (Homo sapiens, UniProt P21802). In words: FGF receptor binding assay: inhibition of 125I-bFGF binding to FGF receptor. The protocol:
The ability of a peptide compound to bind to an FGF receptor can be determined using one or both of the receptor binding assays described in this example, which measure the ability of a test compound to inhibit the binding of radiolabeled bFGF to the FGF receptor. The first assay is a cell-based assay, utilizing FGF receptor-expressing cells. Cells expressing an FGF receptor are seeded on a 96 well plate (50,000 cells/well) and incubated overnight at 37° C., 5% CO2. The cells are then washed once with binding buffer (Dulbecco's Modified Eagle's Medium (DMEM) with HEPES, gelatin and heparin). A test peptide is diluted to the desired concentration in binding buffer with heparin (15 U/ml) and added to the cells (25 μl per well). ^125 I-bFGF (50,000 cpm/well; Amersham Life Sciences), diluted in binding buffer with heparin, is added to each well (25 μl per well so that final volume is 50 μl). The cells are incubated in a humidified chamber at 4° C. for 3 hours. The cells are washed twice with binding buffer to remove unbound material. The washed cells are then dissolved in 100 μl of 1N NaOH and counted in a gamma counter. The ability of a test compound to bind to FGFR is evidenced by the reduced binding of ^125 I-bFGF to the cells in the presence of the test compound as compared to the binding of ^125 I-bFGF to the cells in the absence of the test compound.
A second FGFR binding assay utilizes biotinylated soluble FGFR. Biotinylated FGFR is mixed in an eppendorf tube with ^125 I-bFGF and a test compound in binding buffer. The tubes are placed on an eppendorf roller at 4° C. for 1.5 hours. Magnetic streptavidin beads (CPG, Inc.) are prepared by washing twice with binding buffer. After the 1.5 hour incubation of the tubes, 15 μl of magnetic streptavidin beads are added to each tube and continued on the eppendorf roller for 10 minutes at 4° C. to allow the strepavidin to interact with the biotinylated FGFR. The tubes are removed from the roller and spun down in a microfuge for 2 minutes at 3000 rpm. Using magnets, the magnetic beads are washed twice with binding buffer. 100 μl of binding buffer is added to each tube and the contents are moved to a 12×75 mm test tube. The contents (i.e., strepavidin beads, with biotinylated FGFR and ^125 I-bFGF bound thereto) are counted in a Gamma counter. The ability of a test compound to bind to FGFR is evidenced by the reduced binding of ^125 I-bFGF to the biotinylated FGFR in the presence of the test compound as compared to the binding of ^125 I-bFGF to the biotinylated FGFR in the absence of the test compound.

The subject of another test is NIH 3T3 cells. Type of test: cell-based. The procedure:
A second functional assay for FGFR is a proliferation assay, based on the fact that NIH 3T3 cells show enhanced growth in the presence of increasing concentrations of bFGF. NIH 3T3 cells are cultured (e.g., about 3 days) with bFGF (10 nM) in the presence or absence of a test peptide compound. Cell growth is quantitated using a standard method for detecting cell growth, such as tritiated thymidine incorporation or uptake of 3, ([…])2,5-diphenyl-tetrazolium bromide (MTT). MTT (commercially available from Sigma Chemical Co.) is a chromogenic substrate that is converted from yellow to blue in viable cells, which can be detected spectrophotometrically.

The next test has as its system p42-MAP kinase. In words: Signal transduction assay: bFGF-induced phosphorylation/activation of MAP kinase in NIH 3T3 cells. Type of test: cell-based. The source says: The effect of peptide compounds on the functional activity of an FGF receptor can be evaluated in one or both of the functional assays described in this example. The first assay is a signal transduction assay, exploiting the fact that bFGF binding to FGFR initiates a phosphorylation cascade that includes the phosphorylation of MAP kinase (MAP-K). Accordingly, the ability of a test compound to modulate bFGF-induced phosphorylation of MAP-K is examined. NIH 3T3 cells are synchronized to quiescence by growing in medium containing 0.5% fetal bovine serum (FBS) for 2 days. The cells are then shifted into fresh 0.5% FBS-containing medium for 2 hours to reduce the basal level of MAP-K phosphorylation before the experiment. Test peptide compounds are dissolved in fresh dimethyl sulfoxide (DMSO) to 100 mg/ml and series dilutions are made in DMSO. […] Phosphorylation of MAP-K in the 3T3 cells is initiated by incubating the cells with the bFGF-containing medium in the presence or absence of test peptide for 15 minutes at 37° C. The phosphorylation is stopped by washing with cells with PBS and lysing the cells with sodium […] (SDS)-containing buffer. Cell lysates are separated on 12% SDS polyacrylamide gels and the proteins are transferred onto PVDF membranes. Membrane-bound cellular proteins are probed with a rabbit anti-phosphoMAP-K antibodies, followed by a goat anti-rabbit secondary antibody, labeled with horse radish peroxidase. The blots are then detected by the enhanced chemiluminescence (ECL) method.

The mark [1] stands for this setting: Table 3 peptides, inhibition of bFGF binding to FGFR2-IIIC.
The mark [2] stands for this setting: Table 5 peptides (bFGF-binding peptides).
Where [3] appears, read: Table 3 peptides, bFGF-induced MAP-K phosphorylation, read-out: MAP-K.
Where [4] appears, read: Table 3 peptides, values given in mM.

Read-outs that look alike come from different tables or passages of the source. Residues, ends and D or L forms follow the SMILES beside them. No end group written: not given here. *: point of attachment. Biotin = O=C1N[C@H]2[C@H](CS[C@H]2CCCCC(=O)*)N1

Sequence of FGFR2-IIIC (P21802 22-377 limits assumed, species assumed): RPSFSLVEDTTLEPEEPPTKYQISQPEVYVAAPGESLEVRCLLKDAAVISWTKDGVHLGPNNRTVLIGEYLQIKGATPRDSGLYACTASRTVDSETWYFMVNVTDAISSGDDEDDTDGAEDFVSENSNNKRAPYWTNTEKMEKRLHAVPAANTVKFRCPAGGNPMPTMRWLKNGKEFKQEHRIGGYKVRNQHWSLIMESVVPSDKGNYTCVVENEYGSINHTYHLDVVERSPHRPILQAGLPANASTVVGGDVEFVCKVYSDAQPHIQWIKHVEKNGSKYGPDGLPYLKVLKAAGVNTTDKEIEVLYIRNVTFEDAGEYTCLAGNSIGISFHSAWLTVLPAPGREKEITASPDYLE

“GFLMMYMMG [Compound 566, H-GFLMMYMMG-OH*TFA]”: at FGFR2-IIIC (setting [1]), the IC50 is over 0.1 mM.

“GFLGKYMESLMRMG-NH2 [Compound 659, H-GFLGKYMESLMRMG-NH*TFA]” gave an IC50 on FGFR2-IIIC (setting [1]) of about 0.3 mM.

The compound “GYLAQYMARG-NH2 [Compound 662, H-GYLAQYMARG-NH*TFA]” came in with an IC50 at FGFR2-IIIC (setting [1]) of about 0.3 mM.

“GKALEWYKSLMRMG-NH2 [Compound 661, H-GKALEWYKSLMRMG-NH*TFA]” yielded an IC50 at FGFR2-IIIC (setting [1]) of about 0.3 mM.

Consider “ADGAAGYDWDDLLGGAA-NH2 [Compound 477, H-ADGAAGYDWDDLLGGAA-NH*TFA]”, for which the IC50 in the test on NIH 3T3 cells is over 100 µM; on FGFR2-IIIC (setting [2]) it was over 0.1 mM.

With “GYFQYMALYG [Compound 567, H-GYFQYMALYG-OH*TFA]”, the IC50 on FGFR2-IIIC (setting [1]) was over 0.1 mM.

Regarding “GAHNLRQYLMRFLG [Compound 623, H-GAHNLRQYLMRFLG-OH*TFA]”, the IC50 in the test on NIH 3T3 cells was about 100 µM; in the test on p42-MAP kinase (setting [3]), about 50 µM; at FGFR2-IIIC (setting [1]) it was about 0.12 mM. The “Effect on activation of MAP-K by bFGF” value in the test with p42-MAP kinase (increasing concentrations of compound) is “clearly antagonized”.

Consider “Ac-GSWGDWERSGDWFG-NH2 [Compound 512, Acetyl-GSWGDWERSGDWFG-NH]”, for which the IC50 with NIH 3T3 cells is over 100 µM; at FGFR2-IIIC (setting [2]), over 0.1 mM.

In the case of “ADGAAGSWGDWERSGDWFGGAA-NH2 [Compound 509]”, the results for the IC50 in the test on NIH 3T3 cells and on FGFR2-IIIC (setting [2]) were over 100 µM and over 0.1 mM, respectively.

With `CC(C)C[C@H](NC(=O)[C@H](CC(C)C)NC(=O)[C@H](CC(=O)O)NC(=O)[C@H](CC(=O)O)NC(=O)[C@H](Cc1c[nH]c2ccccc12)NC(=O)[C@H](CC(=O)O)NC(=O)[C@H](Cc1ccc(O)cc1)NC(=O)CNC(=O)[C@H](C)NC(=O)[C@H](C)NC(=O)CNC(=O)[C@H](CC(=O)O)NC(=O)[C@H](C)NC(=O)CCCC[C@@H]1SC[C@@H]2NC(=O)N[C@@H]21)C(=O)N[C@@H](CO)C(=O)NCC(=O)N[C@@H](C)C(=O)N[C@@H](C)C(N)=O` [Compound 476, Biotin-ADGAAGYDWDDLLSGAA-NH] (Biotin-ADGAAGYDWDDLLSGAA-NH2), the results for the IC50 with NIH 3T3 cells and at FGFR2-IIIC (setting [2]) were over 100 µM and over 0.1 mM, respectively.

In the case of “GAHYLRQYLMRFRG-NH2 [Compound 668, H-GAHYLRQYLMRFRG-NH*TFA]”, the IC50 at FGFR2-IIIC (setting [1]) was about 0.003 mM.

`CC(=O)NCC(=O)N[C@@H](CS)C(=O)N[C@H](C(=O)N[C@@H](CC(=O)O)C(=O)N[C@@H](CC(C)C)C(=O)N[C@@H](Cc1ccc(O)cc1)C(=O)N[C@@H](Cc1c[nH]cn1)C(=O)N[C@@H](Cc1ccc(O)cc1)C(=O)N[C@H](C(=O)N[C@@H](Cc1ccc(O)cc1)C(=O)N[C@@H](CS)C(=O)NCC(N)=O)C(C)C)C(C)C` [Compound 514, Acetyl-GCVDLYHYVYCG-NH] (Ac-GCVDLYHYVYCG-NH2): the IC50 in the test with NIH 3T3 cells is 10 to 100 µM; in the test with p42-MAP kinase (Table 5 peptides, read-out: MAP-K), about 50 µM. The “Effect on proliferative activity of bFGF” value in the test with NIH 3T3 cells (NIH 3T3 cells) was “antagonists of the proliferative activity of bFGF”.

“bFGF: basic fibroblast growth factor, the FGF receptor ligand used as stimulus and unlabeled competitor [reference compound]”: the “Activation of MAP-K” value with p42-MAP kinase (1 and 10 nM, without test peptide, FIG. 3) is 40-60%.

With “GAHYLRQYLMRFLG-NH2 [Compound 658, H-GAHYLRQYLMRFLG-NH*TFA]”, the IC50 with NIH 3T3 cells (NIH 3T3 cells, 10 nM bFGF, FIG. 6, read-out: Concentration that half maximally reduces bFGF-induced proliferation) is 40 µM; with p42-MAP kinase (1 nM bFGF, FIG. 5, read-out: Concentration that half maximally antagonizes bFGF activation of MAP-K), about 3 µM; in the test on p42-MAP kinase (setting [3]) it was about 1 µM; at FGFR2-IIIC (setting [1]), about 0.008 mM.

Regarding `CC(C)C[C@H](NC(=O)[C@H](CC(C)C)NC(=O)[C@H](CC(=O)O)NC(=O)[C@H](CC(=O)O)NC(=O)[C@H](Cc1c[nH]c2ccccc12)NC(=O)[C@H](CC(=O)O)NC(=O)[C@H](Cc1ccc(O)cc1)NC(=O)CNC(=O)[C@H](C)NC(=O)[C@H](C)NC(=O)CNC(=O)[C@H](CC(=O)O)NC(=O)[C@H](C)NC(=O)CCCC[C@@H]1SC[C@@H]2NC(=O)N[C@@H]21)C(=O)NCC(=O)NCC(=O)N[C@@H](C)C(=O)N[C@@H](C)C(N)=O` [Compound 478, Biotin-ADGAAGYDWDDLLGGAA-NH] (Biotin-ADGAAGYDWDDLLGGAA-NH2), the IC50 with NIH 3T3 cells was over 100 µM; at FGFR2-IIIC (setting [2]), over 0.1 mM.

In the case of “GDVFLSMYQFSVIG [Compound 622, H-GDVFLSMYQFSVIG-OH*TFA]”, the IC50 on FGFR2-IIIC (setting [1]) is over 0.1 mM.

As for “ADGAAGYDWDDLLSGAA-NH2 [Compound 475, H-ADGAAGYDWDDLLSGAA-NH*TFA]”, the IC50 in the test on NIH 3T3 cells was over 100 µM; at FGFR2-IIIC (setting [2]) it was over 0.1 mM.

`CC(=O)NCC(=O)N[C@@H](CS)C(=O)N[C@H](C(=O)N[C@@H](CC(C)C)C(=O)N[C@@H](CC(C)C)C(=O)N[C@@H](Cc1ccc(O)cc1)C(=O)N[C@@H](CC(=O)O)C(=O)N[C@@H](CCC(=O)O)C(=O)N[C@@H](CCCNC(=N)N)C(=O)N[C@H](C(=O)N[C@@H](CS)C(=O)NCC(N)=O)[C@@H](C)O)C(C)C` [Compound 513, Acetyl-GCVLLYDERTCG-NH] (Ac-GCVLLYDERTCG-NH2) returned an IC50 in the test with NIH 3T3 cells of over 100 µM.

For “GAHYLRQYMMRFLG-NH2 [Compound 669, H-GAHYLRQYMMRFLG-NH*TFA]”, the IC50 on FGFR2-IIIC (setting [1]) is about 0.02 mM.

In turn, “Ac-GHDGEMYG-OH [Compound 660, Acetyl-GHDGEMYG-OH]” displayed an IC50 at FGFR2-IIIC (setting [4]) of over 1 mM.

For “AHYLRQYLMRFR-NH2 [Compound 673, H-AHYLRQYLMRFR-NH*TFA]”, the IC50 on FGFR2-IIIC (setting [1]) was about 0.008 mM.

“GYLYLYMVG [Compound 656, H-GYLYLYMVG-OH*TFA]” returned an IC50 on FGFR2-IIIC (setting [1]) of over 0.1 mM.

On FGFR2-IIIC (setting [1]), “GYYLLWMVG [Compound 564, H-GYYLLWMVG-OH*TFA]” showed an IC50 of over 0.1 mM.

As for “YLRQYLMRFR-NH2 [Compound 671, H-YLRQYLMRFR-NH*TFA]”, at FGFR2-IIIC (setting [1]), the “Binding IC50” value is on record as “does not appear to further increase the IC50” and the IC50 is about 0.008 mM.

Regarding “GSLMRMG-NH2 [Compound 663, H-GSLMRMG-NH*TFA]”, the IC50 on FGFR2-IIIC (setting [4]) is over 1 mM.

Take “HYLRQYLMRFR-NH2 [Compound 672, H-HYLRQYLMRFR-NH*TFA]”: at FGFR2-IIIC (setting [1]), the IC50 is about 0.008 mM.

“LRQYLMRFR-NH2 [Compound 670, H-LRQYLMRFR-NH*TFA]” yielded an IC50 at FGFR2-IIIC (setting [1]) of about 0.12 mM.

In turn, `CC(C)C[C@H](NC(=O)[C@H](CC(=O)O)NC(=O)[C@@H](NC(=O)[C@H](CS)NC(=O)CNC(=O)[C@H](C)NC(=O)[C@H](C)NC(=O)CNC(=O)[C@H](CC(=O)O)NC(=O)[C@H](C)N)C(C)C)C(=O)N[C@@H](Cc1ccc(O)cc1)C(=O)N[C@@H](Cc1c[nH]cn1)C(=O)N[C@@H](Cc1ccc(O)cc1)C(=O)N[C@H](C(=O)N[C@@H](Cc1ccc(O)cc1)C(=O)N[C@@H](CS)C(=O)NCC(=O)NCC(=O)N[C@@H](C)C(=O)N[C@@H](C)C(N)=O)C(C)C` [Compound 507] (H-ADGAAGCVDLYHYVYCGGAA-NH2) came in with an IC50 with NIH 3T3 cells of 10 to 100 µM. Further, the “Effect on proliferative activity of bFGF” value in the test on NIH 3T3 cells (NIH 3T3 cells) is “antagonists of the proliferative activity of bFGF”.
